Experimental findings from US7977282B2, “Chemical amendments for the stimulation of biogenic gas generation in deposits of carbonaceous material” (Luca Technologies, Inc., priority 2006, dated 2011) are described below.

In assay [1] the test system is microorganisms present in the sample (Monarch coal seam coal and formation water). As to the kind of experiment: Biogenic methane generation from Monarch coal samples with hydrogen, phosphorous compound and ammonia amendments. The following applies: different coal and formation water sample; no ammonium and phosphate amendment.
Protocol: Experiments were conducted to compare biogenic methane generation from coal samples after introducing an amendment of hydrogen gas, a phosphorous compound, and ammonia. For each experiment, methane generation from coal samples from the Monarch coal seam in the Powder River Basin in Wyoming was periodically measured over the course of about 627 days. Each anaerobic 5 gram coal sample was placed in a nominal 36.5 ml serum bottle with 15 mL of anaerobic water that was also taken from the formation. The coal and formation water were placed in the serum bottle while working in an anaerobic glove bag. The headspace in the bottle above the sample was flushed with a mixture of N2 and CO2 (95/5).
The methane levels in the headspace above the samples was periodically measured and recorded. The methane was measured by running samples of the headspace gases through a gas chromatograph equipped with a thermal conductivity detector.
In assay [2] the test system is microorganism consortia in coal samples.
Description: Rollover is a condition where the rate of biogenic methane production starts to plateau as the in situ methane concentration reaches a certain level. In many instances, the rate flattens to zero, and the methane concentration remains constant over time. The rollover point (i.e., the point where the methane concentration begins to break from a monotonically increasing state) can vary between microorganism consortia, but appears to be reached in almost all unamended samples of carbonaceous material that have been examined to date.
Assay [3] deals with methanogenesis in Powder River Basin coal and formation water. Description: Single and multiple nutrient amendments, Powder River Basin coal (FIG. 9). The assay is classed as cell-based. Conditions: phosphate 5 mg/L, yeast extract about 500 mg/L, BESA about 10 mM.
Protocol: Two comparative groups were also measured: (1) Samples of the Power River Basin coal to which no amendments were added (unamended), and (2) Samples of the PRB coal to which bromoethanesulfonic acid (BESA), a known methanogen-specific inhibitor, was added.
The headspace in the bottle above the sample was exchanged with helium.
The amendments were added to the sample bottles until a target concentration of the amendment was reached. […] For the yeast extract only amended, Difco® yeast extract from Becton Dickinson and Company was added to the sample bottles until a concentration of about 500 mg/L was reached.
Finally, for the samples used in the comparative example where methane production from methanogenesis was inhibited, BESA was added to the sample bottles until it reached a concentration of about 10 mM.
Methane production from the samples were measured and plotted as the percentage of methane in the headspace above the liquid in the serum bottle. Three sample bottles were prepared for each amendment, and the methane concentrations were measured in triplicate and averaged.
Assay [4] has as its system coal formation in Wyoming's Powder River Basin. Here is the method: FIGS. 14A-B show graphs of measurements of methane gas production over time from a coal formation in Wyoming's Powder River Basin before and after an amendment of phosphate and filtered water was introduced to the formation.
The gas well was then treated with an amendment of phosphate and filtered water for about 1.2 months (i.e., late August to early October). The amendment included the introduction of an aqueous solution of 9.5×10^−5 M potassium phosphate to an underground natural gas formation at a rate of about 14,400 L/day for each day of the treatment period. Following the treatment period with the phosphorous amendment, the gas well was sealed for a period of about 2 months (i.e., early October to early December) before the measurements of gas were measured during the post-amendment period (the dwell period).
Then the same phosphorous amendment as described for FIG. 14A was added to the formation for a 1.2 month period (i.e., late August to early October) followed by an approximately 2 month dwell period.

Assay [5] has as its system microorganisms in Monarch coal, formation water and cell concentrate. Conditions: 18.0 mM acetate. Here is the method:
Experiments were conducted to measure the effects of acetate amendments on methane production from samples of carbonaceous materials. The carbonaceous materials used in these experiments were coal samples taken from underground coal beds at the Monarch coal site. […] The cell concentrate consisted of cells from about 6.6 L of formation water added to 15 mL of formation water.
In a first set of samples, the acetate amendment included adding an aqueous sodium acetate solution to the sample bottles to give the samples an 18.0 mM acetate concentration (an average measured concentration). A second set of control samples were prepared in the same manner except for lacking the acetate amendment. Methane levels (measured as a mol. % methane in the headspace of the sample bottle) were periodically measured in both the amendment and control samples over the course of 90 days.

In assay [6] the test system is methanogenesis in produced water and oil. As to the kind of experiment: Phosphorous compound amendments in oil samples, field in Texas (FIG. 10). Type of assay: cell-based. The following applies: 45° C., 14 days, oil from Texas field. Here is the method:
Produced water and oil samples were collected directly from well heads after passing produced fluids through a portable anaerobic and disinfected oil-water separator. Strict anoxic techniques were used. The water samples were maintained at field temperature prior to use in experiments. Twenty mls of produced water and 0.1 ml of oil were distributed into sterile 36.5 ml serum bottles contained within a disinfected anaerobic glove bag. The anaerobic glove bag contained a filtration apparatus for removing airborne microbial contaminants. […] Incubation temperature was 45° C., the approximate in-situ temperature. Incubation period prior to headspace gas analysis was 14 days. The samples were prepared with the following amendments: […] Final bottle concentration −0.5 mg/L as Phosphorous; (2) Minerals (100× less the stock concentration in Table 2); (3) Metals (300× less the stock concentration in Table 1); (4) Minerals+Metals+Yeast extract (25 mg/L); (5) Minerals+Metals+Vitamins (100× less the stock concentration in appendix 1)+Yeast extract (25 mg/L). In addition, two comparative experiments were run for: […] The experimental bottles were placed into a heated water bath maintained at the field temperature during gas analysis to avoid temperature fluctuations. […] The methane measurements, expressed as the percentage of methane in the headspace above the sample bottles, were plotted in FIG. 10.

Assay [7] concerns methanogenesis and acetate production in produced water and oil. As to the kind of experiment: Phosphorous compound amendments in oil samples, field in Montana (FIGS. 11A-B). Type of assay: cell-based. The following applies: oil from Montana field. Here is the method:
Produced water and oil samples were collected directly from well heads after passing produced fluids through a portable anaerobic and disinfected oil-water separator. Strict anoxic techniques were used. The water samples were maintained at field temperature prior to use in experiments.
Twenty mls of produced water and 0.1 ml of oil were distributed into sterile 36.5 ml serum bottles contained within a disinfected anaerobic glove bag. The anaerobic glove bag contained a filtration apparatus for removing airborne microbial contaminants. […] Incubation temperature was 45° C., the approximate in-situ temperature. Incubation period prior to headspace gas analysis was 14 days. The samples were prepared with the following amendments: (1) Sodium phosphate. Final bottle concentration −0.5 mg/L as Phosphorous; (2) Minerals (100× less the stock concentration in Table 2); (3) Metals (300× less the stock concentration in Table 1); (4) Minerals+Metals+Yeast extract (25 mg/L); (5) Minerals+Metals+Vitamins (100× less the stock concentration in appendix 1)+Yeast extract (25 mg/L). […]
The experimental bottles were placed into a heated water bath maintained at the field temperature during gas analysis to avoid temperature fluctuations. […] The methane measurements, expressed as the percentage of methane in the headspace above the sample bottles, were plotted in FIG. 10. […]

The subject of another assay is methanogenic consortia. Description: Enrichment transfer of methanogenic consortia on coal (FIG. 13). The assay is classed as cell-based. Here is the method: With the discovery that methanogenic consortia are commonly present in formation waters, a significant research effort, both laboratory and field oriented, was directed at identify methodologies for enhancing their activities in-situ. To this end, methanogenic consortia capable of rapid methanogenesis on coal from the Powder River Basin have been obtained using an enrichment procedure wherein a small volume of an active consortium is added to a “sterile” slurry bottle (in this case, autoclaved Tongue River coal and filter sterilized Tongue River formation water). The consortium is allowed to grow and metabolize, then the dilution series is repeated. This enrichment procedure appears to favor the growth of microorganisms more capable of metabolizing coal to methane. […] Very rapid methanogenesis was observed after the second transfer with rates 57 times greater on average relative to the parent samples (leftmost bars). The two exceptions to the trend were the last two sample sets on the far right of FIG. 13. These were cases in which methanogenesis was inhibited in the parental bottles intentionally with BESA and unintentionally in bottles that received solvent (pyridine) extracts of coal.

Entries after “also recorded” stand apart in the source; their conditions may differ.

Take `[HH]` [H2, hydrogen]: the “effect on coal metabolism to methane” value in assay [1] is “stimulated coal metabolism to methane”.
For `Cl.N` [ammonium chloride], in assay [2] (25 mg/L nitrogen, FIG. 7), the “initial rate of methane production” value is reported as “initially greater than for the unamended samples or samples with other types of amendments” and the peak methane level result was “exceeded the peak plateau levels in the unamended samples”. In addition, the “methane level versus unamended samples / plateau” value in assay [2] (about day 600, FIG. 7) is “about the same as those measured in the unamended samples”.
Consider `O=P(O)(O)O` [potassium phosphate], for which the “methane production, percentage of methane in headspace” value in assay [3] was “rates and yields of methanogenesis were highest”. Also, in assay [4] (FIG. 14A), the “natural gas production rate relative to baseline period” value is on record as “about double the average production rate during the baseline period”. The “natural gas production rate following treatment and dwell periods” value in assay [4] (FIG. 14A, 9.5×10^−5 M, about 14,400 L/day for about 1.2 months, about 2 months dwell) is reported as “over 9 mcf/day”. In assay [4] (FIG. 14B, declining formation), the “natural gas production rate following treatment” value was “jump in the natural gas product rate”. Further, in assay [2] (5 mg/L, after 600 days, FIG. 7), the “methane level higher than samples without phosphate” value is listed as “about 43%” and the “methane level in headspace” value is on record as “about 4.3 mol. %”. For the same compound, the “methane concentration over time, rollover” value in assay [2] (just over 600 days, FIG. 8) is recorded as “no plateau was observed; also recorded: significantly higher methane levels than samples treated with a minerals amendment or the samples that were unamended”.
In the case of `CC(=O)[O-].[Na+]` [sodium acetate], the “activation period before methane generation” value in assay [5] is “about 65 days”. Besides, the “methane in the headspace of the sample bottle” value in assay [5] (90th day) was “over 12 mol. %”.
`O=P(O)(O)O` [sodium phosphate]: the “methanogenesis, percentage of methane in headspace” value in assay [6] is “comparable stimulation relative to more complex nutrient mixtures”. Further, in assay [7] (FIG. 11A), the “rate of methanogenesis” value is “highest rates of methanogenesis”. In addition, the “acetate production” value in assay [7] (FIG. 11B) is recorded as “stimulated acetate production relative to the unamended controls”.
With “bromoethanesulfonic acid [BESA, reference compound]”, the “methane production, percentage of methane in headspace” value in assay [3] is “did not accumulate”. Besides, in assay [6], the “methanogenesis, percentage of methane in headspace” value is listed as “below detection”. In addition, the “methanogenesis in parental bottles” value in the assay with methanogenic consortia is recorded as “inhibited”.
